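Where inhibition never reached the appropriate level, the endpoint shown equals the highest concentration tested. Otherwise, values were interpolated linearly from a five-concentration, 48-hour dose response in 96-well plates. At the GI50, growth is halved. At the TGI there is no net growth.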
How the values were obtained:
Experiment in all cases: NCI anticancer screen, dose series, 48 h
UO-31 renal = tested on: UO-31 renal
MDA-MB-231 breast = tested on: MDA-MB-231 breast
HOP-92 NSCLC = tested on: HOP-92 NSCLC
HT29 colon = tested on: HT29 colon
NCI/ADR-RES ovarian = tested on: NCI/ADR-RES ovarian
SR leukemia = tested on: SR leukemia
M14 melanoma = tested on: M14 melanoma
NCI-H23 lung = tested on: NCI-H23 lung
MOLT-4 leukemia = tested on: MOLT-4 leukemia
A549 NSCLC = tested on: A549 NSCLC
COLO 205 colon = tested on: COLO 205 colon
DU-145 prostate = tested on: DU-145 prostate
UACC-62 melanoma = tested on: UACC-62 melanoma
SF-268 CNS = tested on: SF-268 CNS
LOX IMVI melanoma = tested on: LOX IMVI melanoma
MALME-3M melanoma = tested on: MALME-3M melanoma
BT-549 breast = tested on: BT-549 breast
EKVX NSCLC = tested on: EKVX NSCLC
SN12C renal = tested on: SN12C renal
HL-60(TB) leukemia = tested on: HL-60(TB) leukemia
HCT-15 colon = tested on: HCT-15 colon
PC-3 prostate = tested on: PC-3 prostate
SK-OV-3 ovarian = tested on: SK-OV-3 ovarian
ACHN renal = tested on: ACHN renal
RPMI-8226 leukemia = tested on: RPMI-8226 leukemia
SF-539 CNS = tested on: SF-539 CNS
OVCAR-4 ovarian = tested on: OVCAR-4 ovarian
SK-MEL-2 melanoma = tested on: SK-MEL-2 melanoma
SW-620 colon = tested on: SW-620 colon
A498 renal = tested on: A498 renal
HCC-2998 colon = tested on: HCC-2998 colon
U251 CNS = tested on: U251 CNS
HS 578T breast = tested on: HS 578T breast
NCI-H460 lung = tested on: NCI-H460 lung
MCF7 breast = tested on: MCF7 breast
OVCAR-3 ovarian = tested on: OVCAR-3 ovarian
SK-MEL-5 melanoma = tested on: SK-MEL-5 melanoma
SNB-75 CNS = tested on: SNB-75 CNS
T-47D breast = tested on: T-47D breast
SNB-19 CNS = tested on: SNB-19 CNS
RXF 393 renal = tested on: RXF 393 renal
CCRF-CEM leukemia = tested on: CCRF-CEM leukemia
IGROV1 ovarian = tested on: IGROV1 ovarian
MDA-MB-435 = tested on: MDA-MB-435
SF-295 CNS = tested on: SF-295 CNS
TK-10 renal = tested on: TK-10 renal
HOP-62 NSCLC = tested on: HOP-62 NSCLC
CAKI-1 renal = tested on: CAKI-1 renal
K-562 leukemia = tested on: K-562 leukemia
OVCAR-8 ovarian = tested on: OVCAR-8 ovarian
SK-MEL-28 melanoma = tested on: SK-MEL-28 melanoma
KM12 colon = tested on: KM12 colon
UACC-257 melanoma = tested on: UACC-257 melanoma
786-0 renal = tested on: 786-0 renal
NCI-H226 lung = tested on: NCI-H226 lung
NCI-H522 lung = tested on: NCI-H522 lung
OVCAR-5 ovarian = tested on: OVCAR-5 ovarian

O=C(/C=C/c1ccc([N+](=O)[O-])cc1)c1cccc(Nc2nc(Nc3ccccc3)nc(Nc3ccccc3)n2)c1
GI50 (UO-31 renal): 2.18 µM | TGI (UO-31 renal): > 100 µM | GI50 (MDA-MB-231 breast): 10.7 µM | TGI (MDA-MB-231 breast): 41.9 µM | GI50 (HOP-92 NSCLC): 0.662 µM | TGI (HOP-92 NSCLC): 8.5 µM | GI50 (HT29 colon): 7.79 µM | TGI (HT29 colon): > 100 µM | GI50 (NCI/ADR-RES ovarian): 18.2 µM | TGI (NCI/ADR-RES ovarian): > 100 µM | GI50 (SR leukemia): 0.484 µM | TGI (SR leukemia): 6.92 µM | GI50 (M14 melanoma): 21.6 µM | TGI (M14 melanoma): 90.6 µM | GI50 (NCI-H23 lung): 17.5 µM | TGI (NCI-H23 lung): 98.3 µM | GI50 (MOLT-4 leukemia): 2.6 µM | TGI (MOLT-4 leukemia): 20 µM | GI50 (A549 NSCLC): 25 µM | TGI (A549 NSCLC): > 100 µM | GI50 (COLO 205 colon): 13 µM | TGI (COLO 205 colon): 61.2 µM | GI50 (DU-145 prostate): 28.2 µM | TGI (DU-145 prostate): > 100 µM | GI50 (UACC-62 melanoma): 21.7 µM | TGI (UACC-62 melanoma): > 100 µM | GI50 (SF-268 CNS): 17.6 µM | TGI (SF-268 CNS): > 100 µM | GI50 (LOX IMVI melanoma): 11.1 µM | TGI (LOX IMVI melanoma): 44.6 µM | GI50 (MALME-3M melanoma): 38.8 µM | TGI (MALME-3M melanoma): > 100 µM | GI50 (BT-549 breast): 27 µM | TGI (BT-549 breast): > 100 µM | GI50 (EKVX NSCLC): 22.3 µM | TGI (EKVX NSCLC): > 100 µM | GI50 (SN12C renal): 26.8 µM | TGI (SN12C renal): > 100 µM | GI50 (HL-60(TB) leukemia): 8.82 µM | TGI (HL-60(TB) leukemia): 37.7 µM | GI50 (HCT-15 colon): 17.7 µM | TGI (HCT-15 colon): > 100 µM | GI50 (PC-3 prostate): 3.15 µM | TGI (PC-3 prostate): 30.7 µM | GI50 (SK-OV-3 ovarian): 73.8 µM | TGI (SK-OV-3 ovarian): > 100 µM | GI50 (ACHN renal): 27 µM | TGI (ACHN renal): > 100 µM | GI50 (RPMI-8226 leukemia): 1.66 µM | TGI (RPMI-8226 leukemia): 6.31 µM | GI50 (SF-539 CNS): 12.7 µM | TGI (SF-539 CNS): 35.5 µM | GI50 (OVCAR-4 ovarian): 22.1 µM | TGI (OVCAR-4 ovarian): > 100 µM | GI50 (SK-MEL-2 melanoma): 17.7 µM | TGI (SK-MEL-2 melanoma): 54.6 µM | GI50 (SW-620 colon): 4.08 µM | TGI (SW-620 colon): 65.9 µM | GI50 (A498 renal): 11.8 µM | TGI (A498 renal): 28.1 µM | GI50 (HCC-2998 colon): 18.1 µM | TGI (HCC-2998 colon): 68.6 µM | GI50 (U251 CNS): 12 µM | TGI (U251 CNS): > 100 µM | GI50 (HS 578T breast): 1.35 µM | TGI (HS 578T breast): 5.97 µM | GI50 (NCI-H460 lung): 9.63 µM | TGI (NCI-H460 lung): 38 µM | GI50 (MCF7 breast): 1.19 µM | TGI (MCF7 breast): 4.21 µM | GI50 (OVCAR-3 ovarian): 11.3 µM | TGI (OVCAR-3 ovarian): 63.4 µM | GI50 (SK-MEL-5 melanoma): 1.13 µM | TGI (SK-MEL-5 melanoma): 17.6 µM | GI50 (SNB-75 CNS): 4.52 µM | TGI (SNB-75 CNS): 94.8 µM | GI50 (T-47D breast): 9.75 µM | TGI (T-47D breast): > 100 µM | GI50 (SNB-19 CNS): 79.8 µM | TGI (SNB-19 CNS): > 100 µM | GI50 (RXF 393 renal): 5.99 µM | TGI (RXF 393 renal): 30.1 µM | GI50 (CCRF-CEM leukemia): 3.85 µM | TGI (CCRF-CEM leukemia): 25.6 µM | GI50 (IGROV1 ovarian): 0.671 µM | TGI (IGROV1 ovarian): 63.1 µM | GI50 (MDA-MB-435): 20 µM | TGI (MDA-MB-435): > 100 µM | GI50 (SF-295 CNS): 9.81 µM | TGI (SF-295 CNS): > 100 µM | GI50 (TK-10 renal): 54.3 µM | TGI (TK-10 renal): > 100 µM | GI50 (HOP-62 NSCLC): 32.2 µM | TGI (HOP-62 NSCLC): > 100 µM | GI50 (CAKI-1 renal): 25.2 µM | TGI (CAKI-1 renal): > 100 µM | GI50 (K-562 leukemia): 2.89 µM | TGI (K-562 leukemia): 28.2 µM | GI50 (OVCAR-8 ovarian): 14 µM | TGI (OVCAR-8 ovarian): > 100 µM | GI50 (SK-MEL-28 melanoma): 12.5 µM | TGI (SK-MEL-28 melanoma): 40.1 µM | GI50 (KM12 colon): 5.04 µM | TGI (KM12 colon): 29.5 µM | GI50 (UACC-257 melanoma): 68.7 µM | TGI (UACC-257 melanoma): > 100 µM | GI50 (786-0 renal): 13 µM | TGI (786-0 renal): 43.1 µM | GI50 (NCI-H226 lung): 14.4 µM | TGI (NCI-H226 lung): 44.9 µM | GI50 (NCI-H522 lung): 12.4 µM | TGI (NCI-H522 lung): > 100 µM | GI50 (OVCAR-5 ovarian): 51 µM | TGI (OVCAR-5 ovarian): > 100 µM
